We go through 2 molecules from patent US6906006B1, “N-arly-substituted nitrogen-containing heterocycles, processes and novel intermediates for their preparation, and their use as herbicides and plant growth regulators” (Bayer Aktiengesellschaft, priority 1988, dated 2005).

Assay [1] has as its system test plants. Put plainly: Post-emergence test (Use Example B, formula (I) compounds). It counts as in vivo. Conditions: sprayed in 2,000 l of water/ha, damage rated after three weeks, comparison substance 1-(2-chloro-4-trifluoromethylphenyl)-5-methyl-4-nitropyrazole. On the procedure:
• Solvents 5 parts by weight of acetone • Emulsifier: 1 part by weight of alkylaryl polyglycol ether
(§1) To produce a suitable preparation of active compound, 1 part by weight of active compound is mixed with the stated amount of solvent, the stated amount of emulsifier is added and the concentrate is diluted with water to the desired concentration.
Test plants which have a height of 5-15 cm are sprayed with the preparation of the active compound in such a way as to apply the particular amounts of active compound desired per unit area. The concentration of the spray liquor is so chosen that the particular amounts of active compound desired are applied in 2,000 l of water/ha. After three weeks, the degree of damage to the plants is rated in % damage in comparison to the development of the untreated control. The figures denote: • 0%=no action (like untreated control) • 100%=total destruction

The subject of assay [2] is test plants. The assay can be described thus: Pre-emergence test (Use Example A, formula (I) compounds). Conditions: damage rated after three weeks, comparison substance 1-(2-chloro-4-trifluoromethylphenyl)-5-methyl-4-nitropyrazole. It counts as in vivo. On the procedure:
• Solvent: 5 parts by weight of acetone • Emulsifier: 1 part by weight of alkylaryl polyglycol ether
as §1
Seeds of the test plants are sown in normal soil and, after 24 hours, watered with the preparation of active compound. It is expedient to keep constant the amount of water per unit area. The concentration of the active compound in the preparation is of no importance, only the amount of active compound applied per unit area being decisive. After three weeks, the degree of damage to the plants is rated in % damage in comparison to the development of the untreated control. The figures denote: • 0%=no action (like untreated control) • 100% total destruction

For `Cc1c2c(nn1-c1cc(SC(C)C)c(C#N)cc1F)CCCC2` [Example 9, 4-(5-methyl-3,4-tetramethylene-1-pyrazolyl)-5-fluoro-2-isopropylthiobenzonitrile], in the assay on test plants [1], the “effectiveness and crop plant selectivity compared with the prior art” value is listed as “clearly superior effectiveness as well as crop plant selectivity”.

For the molecule `CCOCCOc1cc(-n2nc3c(c2C)CCCC3)c(F)cc1C#N` [Example 10], the “effectiveness and crop plant selectivity compared with the prior art” value with test plants [1] is recorded as “clearly superior effectiveness as well as crop plant selectivity”; with test plants [2], “clearly superior to the prior art”.
